The text below walks through data of patent US20020192161A1, “Animal model for evaluating analgesics” (priority 2001, published 2002).

The nature of series [1]: Bioavailability of oral ibuprofen crushed tablets in control rats. It counts as in vivo, Sprague-Dawley rats. The method, then:
(§1) The animal models are Adult male Sprague-Dawley rats with body weight of 250-300 g, and which were cared for in accordance with the principles and guidelines of the Canadian Council of Animal Care. All rats were catheterized in the right jugular vein for sample collection.
(§2) The tablets were crushed gently and small pieces were administered into the stomach via a plastic tube followed by 0.5 mL tap water. […] They had free access to water.

A short description of series [2]: Bioavailability of oral ibuprofen formulations in vagal-suppressed (propantheline-treated, Pain Model) rats. It counts as in vivo. To be noted: male, Sprague-Dawley, rat, plasma, 20 mg/kg. As for the experimental part:
as §1
An animal model having suppressed vagal properties were produced by administering (intraperitoneal injection) to the rats two 20 mg/kg doses of propantheline (test, n=6), an anticholinergic agent with known vagal suppressive properties, the first dose at 2 hours prior to administration of an NSAID, and the second at 1 hour prior.
as §2

The conditions of series [3]: cited from earlier work; for area under serum drug concentration AUC0-2h: 200 mg dose; for AUC0-2h: 600 mg dose.
For series [4] the following is noted: cited from earlier work.
Where [5] appears, read: male, Sprague-Dawley, rat, plasma, po, 20 mg/kg.

Molecules are shown by their SMILES. Read-outs that look alike come from different tables or passages of the source.

As a reminder, the Cmax is the maximum level reached in the sampled fluid or tissue. What is called Tmax is the time at which the peak concentration occurs. As for `CC(C)Cc1ccc(C(C)C(=O)O)cc1` (racemic) [ibuprofen, (±)-2-(4-Isobutylphenyl)propionic acid], the “AUC (0-8)” value in series [1] (control rats, 20 mg/kg ibuprofen oral as crushed tablets) amounted to 139 μg/h/mL^−1. Further, in series [1] (setting [5]), the concentration peaked (Cmax) at 40400 ng/mL and the Tmax came out at 16.8 min. Moreover, in series [2], the Cmax came to 13800 ng/mL and the time to peak (Tmax) was 45 min. Also, in series [3] (200 mg and 600 mg doses, dental surgery), the “delay in the mean time to peak concentration caused by surgery” value is “two”. Further, the solubility in water entry in series [4] was “less than 1 part of drug in 10,000 parts o”.
For the molecule `CC(C)Cc1ccc([C@@H](C)C(=O)O)cc1` [R-ibuprofen, R(−)-2-(4-isobutylphenyl)propionic acid], in series [3] (before dental extraction), the “area under serum drug concentration AUC0-2h” value is 5.5 mg/L^−1/h and the AUC0-2h was 14400 ng·h/mL. Moreover, the AUC0-2h in series [3] (after dental extraction) is 5800 ng·h/mL.
`CC(C)Cc1ccc([C@H](C)C(=O)O)cc1` [S-ibuprofen, S(+)-2-(4-isobutylphenyl)propionic acid]: in series [3] (before dental extraction), the “area under serum drug concentration AUC0-2h” value was 5.6 mg/L^−1/h and the AUC0-2h was 14200 ng·h/mL. The AUC0-2h in series [3] (after dental extraction) was 7200 ng·h/mL.
